Read-outs that look alike come from different tables or passages of the source.
Test system: panel of cell lines and tumor explants
Experiment: Soft agar (clonogenic) assay on cell lines and tumor explants
Type: cell-based, human
Parameters: key to Differential: panel average log(GI50) minus sample log(GI50); positive = more sensitive
Conditions: for GI50: Homo sapiens; for Differential: average log(GI50) 0.236 minus log(GI50)
Procedure: Compound IIa was tested against a panel of cell lines and tumor explants in a soft agar assay as described in Fiebig, H. H., Maier, A., and Burger, A. M. (Clonogenic assay with established human tumour xenorafts: correlation of in vitro to in vivo activity as a basis for anticancer drug discovery, Eur. J. Cancer 40, 802-820 (2004).) Table 16 lists the type of cancer, the name of the sample, its GI50 (concentration needed to achieve 50% growth inhibition) value in the assay, the logarithm of the GI50 (log(GI50), and the relative sensitivity of each sample (Differential). The differential is calculated by subtracting the log(GI50) for each cell line from the average log(GI50) across the entire panel (0.236 in this case); a positive value indicates a sample that is more sensitive than average, whereas a negative value indicates a sample that is less sensitive than average.

## CC(C)(C)[C@H](c1nc(-c2cc(F)ccc2F)cn1Cc1ccccc1)N(CC[C@H](N)CF)C(=O)CO [Compound IIa]
MOLT-4, Leukemia (ALL), sample MOLT4, read-out: GI50
  GI50: 0.877 nM
Mean across the entire panel, read-out: GI50
  GI50: 1.72 nM
Melanoma, sample 462, GI50 in nM, read-out: log(GI50) (converted)
  GI50: ≥ 10 nM
Melanoma, sample 462, read-out: GI50
  GI50: 10 nM
Melanoma, sample 989, GI50 in nM, read-out: log(GI50) (converted)
  GI50: 12.7 nM
Melanoma, sample 989, read-out: GI50
  GI50: 12.7 nM
Melanoma, sample 1341, GI50 in nM, read-out: log(GI50) (converted)
  GI50: ≥ 10 nM
Melanoma, sample 1341, read-out: GI50
  GI50: 10 nM
NSCLC, sample 211, GI50 in nM, read-out: log(GI50) (converted)
  GI50: 0.216 nM
NSCLC, sample 211, read-out: GI50
  GI50: 0.216 nM
NSCLC, sample 289, GI50 in nM, read-out: log(GI50) (converted)
  GI50: 4.9 nM
NSCLC, sample 289, read-out: GI50
  GI50: 4.9 nM
NSCLC, sample 526, GI50 in nM, read-out: log(GI50) (converted)
  GI50: 1.26 nM
NSCLC, sample 526, read-out: GI50
  GI50: 1.26 nM
NSCLC, sample 629, GI50 in nM, read-out: log(GI50) (converted)
  GI50: ≥ 10 nM
NSCLC, sample 629, read-out: GI50
  GI50: 10 nM
NSCLC, sample 677, GI50 in nM, read-out: log(GI50) (converted)
  GI50: 1.16 nM
NSCLC, sample 677, read-out: GI50
  GI50: 1.16 nM
NSCLC, sample 737, GI50 in nM, read-out: log(GI50) (converted)
  GI50: 3.07 nM
NSCLC, sample 737, read-out: GI50
  GI50: 3.07 nM
NSCLC, sample 1012, GI50 in nM, read-out: log(GI50) (converted)
  GI50: 0.927 nM
NSCLC, sample 1012, read-out: GI50
  GI50: 0.926 nM
NSCLC, sample 1176, GI50 in nM, read-out: log(GI50) (converted)
  GI50: 3 nM
NSCLC, sample 1176, read-out: GI50
  GI50: 3 nM
NSCLC, sample 1422, GI50 in nM, read-out: log(GI50) (converted)
  GI50: 0.728 nM
NSCLC, sample 1422, read-out: GI50
  GI50: 0.728 nM
NSCLC, sample 1647, GI50 in nM, read-out: log(GI50) (converted)
  GI50: 16.7 nM
NSCLC, sample 1647, read-out: GI50
  GI50: 16.8 nM
Ovarian, sample 899, GI50 in nM, read-out: log(GI50) (converted)
  GI50: ≥ 10 nM
Ovarian, sample 899, read-out: GI50
  GI50: 10 nM
Ovarian, sample 1353, GI50 in nM, read-out: log(GI50) (converted)
  GI50: ≥ 10 nM
Ovarian, sample 1353, read-out: GI50
  GI50: 10 nM
PC-3M, Prostate, sample PC3M, GI50 in nM, read-out: log(GI50) (converted)
  GI50: 0.424 nM
PC-3M, Prostate, sample PC3M, read-out: GI50
  GI50: 0.424 nM
Pancreas, sample 546, GI50 in nM, read-out: log(GI50) (converted)
  GI50: 2.59 nM
Pancreas, sample 546, read-out: GI50
  GI50: 2.59 nM
Pancreas, sample 736, GI50 in nM, read-out: log(GI50) (converted)
  GI50: 1.26 nM
Pancreas, sample 736, read-out: GI50
  GI50: 1.26 nM
Pancreas, sample 1657, GI50 in nM, read-out: log(GI50) (converted)
  GI50: 27 nM
Pancreas, sample 1657, read-out: GI50
  GI50: 27 nM
Pancreas, sample 1861, GI50 in nM, read-out: log(GI50) (converted)
  GI50: 0.622 nM
Pancreas, sample 1861, read-out: GI50
  GI50: 0.623 nM
Pancreas, sample 1869, GI50 in nM, read-out: log(GI50) (converted)
  GI50: 10.9 nM
Pancreas, sample 1869, read-out: GI50
  GI50: 10.9 nM
Pancreas, sample 1872, GI50 in nM, read-out: log(GI50) (converted)
  GI50: 0.282 nM
Pancreas, sample 1872, read-out: GI50
  GI50: 0.282 nM
Pancreas, sample 1876, GI50 in nM, read-out: log(GI50) (converted)
  GI50: 0.337 nM
Pancreas, sample 1876, read-out: GI50
  GI50: 0.337 nM
Pancreas, sample 1881, GI50 in nM, read-out: log(GI50) (converted)
  GI50: 2.32 nM
Pancreas, sample 1881, read-out: GI50
  GI50: 2.32 nM
Pancreas, sample 1887, GI50 in nM, read-out: log(GI50) (converted)
  GI50: ≥ 10 nM
Pancreas, sample 1887, read-out: GI50
  GI50: 10 nM
Pancreas, sample 1900, GI50 in nM, read-out: log(GI50) (converted)
  GI50: 16.9 nM
Pancreas, sample 1900, read-out: GI50
  GI50: 16.9 nM
Pancreas, sample 1912, GI50 in nM, read-out: log(GI50) (converted)
  GI50: 0.112 nM
Pancreas, sample 1912, read-out: GI50
  GI50: 0.112 nM
Pancreas, sample 1937, GI50 in nM, read-out: log(GI50) (converted)
  GI50: 0.185 nM
Pancreas, sample 1937, read-out: GI50
  GI50: 0.185 nM
Prostate, sample MRIH1579, GI50 in nM, read-out: log(GI50) (converted)
  GI50: ≥ 10 nM
Prostate, sample MRIH1579, read-out: GI50
  GI50: 10 nM
SCLC, sample 538, GI50 in nM, read-out: log(GI50) (converted)
  GI50: 0.339 nM
SCLC, sample 538, read-out: GI50
  GI50: 0.339 nM
SCLC, sample 573, GI50 in nM, read-out: log(GI50) (converted)
  GI50: 0.587 nM
SCLC, sample 573, read-out: GI50
  GI50: 0.587 nM
SCLC, sample 615, GI50 in nM, read-out: log(GI50) (converted)
  GI50: 0.082 nM
SCLC, sample 615, read-out: GI50
  GI50: 0.082 nM
SCLC, sample 650, GI50 in nM, read-out: log(GI50) (converted)
  GI50: 0.376 nM
SCLC, sample 650, read-out: GI50
  GI50: 0.376 nM
SCLC, sample H69, GI50 in nM, read-out: log(GI50) (converted)
  GI50: 0.269 nM
SCLC, sample H69, read-out: GI50
  GI50: 0.269 nM
Sarcoma, sample 117, GI50 in nM, read-out: log(GI50) (converted)
  GI50: 0.249 nM
Sarcoma, sample 117, read-out: GI50
  GI50: 0.249 nM
Sarcoma, sample 417, GI50 in nM, read-out: log(GI50) (converted)
  GI50: 0.16 nM
Sarcoma, sample 417, read-out: GI50
  GI50: 0.16 nM
Sarcoma, sample 463, GI50 in nM, read-out: log(GI50) (converted)
  GI50: 19.1 nM
Sarcoma, sample 463, read-out: GI50
  GI50: 19.1 nM
Sarcoma, sample 627, GI50 in nM, read-out: log(GI50) (converted)
  GI50: ≥ 10 nM
Sarcoma, sample 627, read-out: GI50
  GI50: 10 nM
Sarcoma, sample 1186, GI50 in nM, read-out: log(GI50) (converted)
  GI50: 0.327 nM
Sarcoma, sample 1186, read-out: GI50
  GI50: 0.327 nM
Sarcoma, sample 1301, GI50 in nM, read-out: log(GI50) (converted)
  GI50: 0.235 nM
Sarcoma, sample 1301, read-out: GI50
  GI50: 0.235 nM
Sarcoma, sample 1410, GI50 in nM, read-out: log(GI50) (converted)
  GI50: 2.24 nM
Sarcoma, sample 1410, read-out: GI50
  GI50: 2.25 nM
U-937, Lymphoma (NHL), sample U937, GI50 in nM, read-out: log(GI50) (converted)
  GI50: 0.0859 nM
U-937, Lymphoma (NHL), sample U937, read-out: GI50
  GI50: 0.086 nM
Leukemia (ALL), sample CCRFCEM
  Differential: 0.779
Leukemia (ALL), sample JURKAT
  Differential: 1.211
Leukemia (ALL), sample MOLT4
  Differential: 0.293
Leukemia (CML), sample K562
  Differential: 0.805
Lymphoma (NHL), sample U937
  Differential: 1.302
Mean across the entire panel, GI50 in nM
  log(GI50): 0.236
Melanoma, sample 462
  Differential: −0.764
Melanoma, sample 989
  Differential: −0.868
Melanoma, sample 1341
  Differential: −0.764
NSCLC, sample 211
  Differential: 0.902
NSCLC, sample 289
  Differential: −0.454
NSCLC, sample 526
  Differential: 0.134
NSCLC, sample 629
  Differential: −0.764
NSCLC, sample 677
  Differential: 0.171
NSCLC, sample 737
  Differential: −0.250
NSCLC, sample 1012
  Differential: 0.270
NSCLC, sample 1176
  Differential: −0.241
NSCLC, sample 1422
  Differential: 0.374
NSCLC, sample 1647
  Differential: −0.988
Ovarian, sample 899
  Differential: −0.764
Ovarian, sample 1353
  Differential: −0.764
Pancreas, sample 546
  Differential: −0.177
Pancreas, sample 736
  Differential: 0.134
Pancreas, sample 1657
  Differential: −1.194
Pancreas, sample 1861
  Differential: 0.442
Pancreas, sample 1869
  Differential: −0.800
Pancreas, sample 1872
  Differential: 0.786
Pancreas, sample 1876
  Differential: 0.709
Pancreas, sample 1881
  Differential: −0.128
Pancreas, sample 1887
  Differential: −0.764
Pancreas, sample 1900
  Differential: −0.992
Pancreas, sample 1912
  Differential: 1.187
Pancreas, sample 1937
  Differential: 0.969
Prostate, sample 22RV1
  Differential: 0.506
Prostate, sample DU145
  Differential: 0.236
Prostate, sample MRIH1579
  Differential: −0.764
Prostate, sample PC3M
  Differential: 0.609
SCLC, sample 538
  Differential: 0.706
SCLC, sample 573
  Differential: 0.468
SCLC, sample 615
  Differential: 1.323
SCLC, sample 650
  Differential: 0.661
SCLC, sample H69
  Differential: 0.807
Sarcoma, sample 117
  Differential: 0.840
Sarcoma, sample 417
  Differential: 1.032
Sarcoma, sample 463
  Differential: −1.045
Sarcoma, sample 627
  Differential: −0.764
Sarcoma, sample 1186
  Differential: 0.722
Sarcoma, sample 1301
  Differential: 0.865
Sarcoma, sample 1410
  Differential: −0.115
bladder
  sensitive samples / samples: 4/6
breast
  sensitive samples / samples: 7/10
Hematological cancers (leukemia and lymphoma)
  sensitive samples / samples: 5/5
sarcomas
  sensitive samples / samples: 4/7
Small cell lung cancer (SCLC)
  sensitive samples / samples: 5/5
Soft agar assay panel
  average log(GI50) across the entire panel: 0.236

Source: patent US8252832B2, “Kinesin inhibitors as cancer therapeutics” (Novartis AG, priority 2007, dated 2012)
